Assay results taken from patent US20170143748A1, “ANTI-TUMOR PHARMACEUTICAL APPLICATION OF PENTACYCLIC TRITERPENE SAPONIN COMPOUNDS OF SZECHUAN MELANDIUM ROOT” (priority 2014, published 2017).

Columns and labels:
[1] = test system: BGC823 human gastric adenocarcinoma; experiment: Anti-BGC823 human gastric adenocarcinoma in BALB/c (nu/nu) nude mice; format: in vivo; set-up: tumor volume of BGC823-bearing nude mice / Tumor mass: unit not given here; conditions: for body weight of BGC823-bearing nude mice / tumor volume of BGC823-bearing nude mice: mg/kg BW: total saponins 1.5, Compound 1, combination 1 & 19, 5-FU 20, Sc; for body weight of BGC823-bearing nude mice: in g (unit assumed)
Method: Human resources gastric adenocarcinoma cell line BGC823 was cultured in the same condition as the experiment 4.
The body weight and the tumor volume were measured and recorded weekly. The tumor volume was calculated according to the formula below.
Tumors were departed and weighed. Tumor Index and inhibition rate were calculated as below: […]

HepG2 = experiment: MTT inhibition of tumor cells in vitro (Example 3); format: cell-based, Human; conditions: 40 μg/mL
MCF-7 = experiment: MTT inhibition of tumor cells in vitro (Example 3); format: cell-based, Human; conditions: 48 hours
Method: (§1) Human resources tumor cell line […], […], HT29, MCF-7 and A875 were provided by Cancer Hospital, Chinese Academy of Medical Sciences.
(§2) Cells were passaged every 2 or 3 days, and all the experiments were carried out on exponentially growing cells.
(§3) All cells were cultured in a humidified atmosphere (5% CO2 and […]), and passaged every 2 or 3 days. Cells were harvested on exponentially growing phase, and cell suspension was prepared with 2×10^4 cells/mL, added with 100 μL per well of 96-well plates, and cultured for 24 h in incubator. 100 μL medium without cells was added per well as blank group.
(§4) Compound (1), (2), (3), (4), (7) or (8) was dissolved in DMSO respectively, and diluted with 1640 medium at a final concentration of 400 μg/mL, so as to that of the Cisplatin. Cells were divided into 9 groups, they were blank group, model group, Compound (1), (2), (3), (4), (7) and (8) groups, and Cisplatin group as the positive one, 6 wells per group.
(§5) Before drug administration, supernatant of each well was removed and fresh 1640 medium was added, 180 μL per well. Compounds and Cisplatin were added with 20 μL per well respectively at a final concentration of 40 μg/mL. Wells of blank and model groups were added with 0.5% DMSO, 20 μL per well. 48 hours later, 20 μL MTT was added per well and continued to culture for 4 hours, then the supernatant was replaced carefully and DMSO was added with 150 μL per well to end the experiment. The 96-well plates were shaken for 10 mins and read the absorbance at 490 nm. The Inhibition rate was calculated.
(§6) Inhibition rate=[(ODmodel−ODblank)−(ODdrugs−ODblank)]/(ODmodel−ODblank)×100%
(§7) The MTT experiment was repeated three times.

A875 = experiment: MTT inhibition of tumor cells in vitro (Example 3); format: cell-based, Human; conditions: 48 hours
Method: as §1, §2, §3, §4, §5, §6, §7

HT29 = experiment: MTT inhibition of tumor cells in vitro (Example 3); format: cell-based, Human; conditions: 40 μg/mL
Method: as §1, §2, §3, §4, §5, §6, §7

BGC823 = experiment: MTT inhibition of tumor cells in vitro (Example 3); format: cell-based, Human; conditions: 40 μg/mL
Method: as §1, §2, §3, §4, §5, §6, §7

HepG2 human heptoma = experiment: Anti-HepG2 human heptoma in BALB/c (nu/nu) nude mice; conditions: for body weight of HepG2-bearing nude mice / tumor volume of HepG2-bearing nude mice: mg/kg BW: total saponins 1.5, Compound 1, combination 1 & 39, Cytoxan 40, Sc
Method: 70 male BALB/c (nu/nu) nude mice (18-20 g, License NO. SCXK (BJ) 2009-0017, National Institutes for Food and Drug Control.) were adaptively bred for one week, and then used in the following experiment.
Human resources hepatoma cell line HepG2 was cultured in RPMI-1640 medium containing 100 U/mL Penicillin and 100 μg/mL Streptomycin with 10% fetal bovine serum and maintained at 37° C. in a humidified atmosphere (5% CO2 and […]).
70 BALB/c (nu/nu) nude mice were adaptively bred for 1 week, HepG2 cells were inoculated subcutaneously into the back of nude mice, 1×10^7 cells per mouse. […] 3 days after inoculation, mice of every therapeutic group were all given the relevant compounds or drugs for 3 weeks, and others were given isodose physiological saline.
The body weight and the size of tumor were measured and recorded weekly. The tumor volume was calculated with the formula below:
tumor volume V=π/6×a×b^2 (a, b means the transverse and longitudinal length of tumor)
At the end of administration, mice were fastened for 8 hours, weighed the fasting body weight, dropped off eyeball to collect blood, centrifuged and collected serum for next experiment. The tumors were departed and weighed. Tumor Index and inhibition rate were calculated as below:
Tumor Index=Tumor mass (mg)/body weight of animal (g)
Inhibition rate=(Average tumor massControl group−Average tumor massadministration group)/Average tumor massControl group×100%
Mice in the model group were injected with sterile water (10 ml/kg BW), Sc. All the animals were treated at 9 am for 3 weeks.
Determination of body weights: Body weights of animals were weighed and recorded once a week.
Tumor measurement: The transverse and longitudinal lengths of tumor were measured with vernier caliper weekly.
End of the experiment: After mice being administrated for 3 weeks (21 days), the experiment was terminated.

O=c1[nH]cc(F)c(=O)[nH]1 [Compound 5-FU, 5-FU, reference compound]
body weight of BGC823-bearing nude mice ([1]; 0 W): 20.20 ± 1.23 | tumor volume of BGC823-bearing nude mice ([1]; 1 W): 931.38 ± 623.32 | body weight of BGC823-bearing nude mice ([1]; 1 W): 19.50 ± 1.51 | tumor volume of BGC823-bearing nude mice ([1]; 2 W): 1262.33 ± 764.46 | body weight of BGC823-bearing nude mice ([1]; 2 W): 18.20 ± 1.81 | tumor volume of BGC823-bearing nude mice ([1]; 3 W): 2212.36 ± 1196.96 | body weight of BGC823-bearing nude mice ([1]; 3 W): 16.70 ± 2.20 | Inhibition rate ([1]; BGC823-bearing nude mice, after 3 weeks, from average tumor mass vs model): 54.85% | Tumor index ([1]; BGC823-bearing nude mice, after 3 weeks, tumor mass/body weight): 0.08 ± 0.04

COC(=O)C1CC(O[C@H]2CC[C@]3(C)[C@H]4C=CC5[C@@H]6CC(C)(C)CC[C@]6(C(=O)OC6OC(C)C(OC(=O)/C=C\c7ccc(C)cc7)C(OC(C)=O)C6OC6CC(C)C(O)C(O)C6O)[C@H](O)C[C@@]5(C)[C@]4(C)CC[C@H]3[C@]2(C)C=O)C(OC2OC(CO)C(O)C(O)C2O)C(OC2OCC(O)C(O)C2O)C1O (stereo partly shown) [Compound (4), sinocrassuloside IV]
inhibition at 40 µg/mL (HepG2; Homo sapiens, HepG2, 48 h, read-out: Inhibition rate, HepG2): 65.7 ± 1.05% | inhibition at 40 µg/mL (MCF-7; Homo sapiens, MCF7, 40 μg/mL, read-out: Inhibition rate, MCF-7): 56.2 ± 1.96% | inhibition at 40 µg/mL (A875; Homo sapiens, A875, 40 μg/mL, read-out: Inhibition rate, A875): 70.5 ± 9.76% | inhibition at 40 µg/mL (HT29; Homo sapiens, HT-29, 48 h, read-out: Inhibition rate, HT29): 90.6 ± 5.6% | inhibition at 40 µg/mL (BGC823; Homo sapiens, BGC-823, 48 h, read-out: Inhibition rate, BGC823): 92.4 ± 6.24%

CCCCOC(=O)C1OC(O[C@H]2CC[C@]3(C)[C@H]4CC=C5[C@@H]6CC(C)(C)CC[C@]6(C(=O)OC6OC(C)C(OC(=O)/C=C\c7ccc(OC)cc7)C(OC(C)=O)C6OC6OC(C)C(O)C(O)C6O)[C@H](O)C[C@@]5(C)[C@]4(C)CC[C@H]3[C@]2(C)C=O)C(OC2OC(CO)C(O)C(O)C2O)C(OC2OCC(O)C(O)C2O)C1O (stereo partly shown) [Compound (8), sinocrassuloside XIII]
Inhibition rate, HepG2 (HepG2; 48 hours): 41.25 ± 1.27% | Inhibition rate, MCF-7 (MCF-7; 40 μg/mL): 61.32 ± 11.67% | Inhibition rate, A875 (A875; 40 μg/mL): 55.32 ± 13.35% | Inhibition rate, HT29 (HT29; 48 hours): 77.22 ± 6.17% | Inhibition rate, BGC823 (BGC823; 48 hours): 56.00 ± 7.90%

O=P1(N(CCCl)CCCl)NCCCO1 (stereo not shown) [Cytoxan, reference compound]
body weight of HepG2-bearing nude mice (HepG2 human heptoma; 0 W): 19.20 ± 0.63 | body weight of HepG2-bearing nude mice (HepG2 human heptoma; 1 W): 18.50 ± 1.08 | tumor volume of HepG2-bearing nude mice (HepG2 human heptoma; 1 W): 988.47 ± 705.60 | body weight of HepG2-bearing nude mice (HepG2 human heptoma; 2 W): 16.00 ± 1.41 | tumor volume of HepG2-bearing nude mice (HepG2 human heptoma; 2 W): 1220.93 ± 881.80 | body weight of HepG2-bearing nude mice (HepG2 human heptoma; 3 W): 14.70 ± 1.34 | tumor volume of HepG2-bearing nude mice (HepG2 human heptoma; 3 W): 1593.79 ± 955.17 | Inhibition rate (HepG2 human heptoma; HepG2-bearing nude mice, after 3 weeks, from average tumor mass vs model): 70.46% | Tumor index (HepG2 human heptoma; HepG2-bearing nude mice, after 3 weeks, tumor mass/body weight): 0.06 ± 0.02
